Values quoted from earlier work as cited in US8129131B2, “Pin1 as a marker for abnormal cell growth” (Beth Israel Deaconess Medical Center, priority 1999, dated 2012).

Tested on: Pin1 or its WW domain
Conditions: pre-incubation with various peptide concentrations before mitotic extracts; concentration-dependent

Chain of Pin1 or its WW domain (Q13526 1-39 limits assumed): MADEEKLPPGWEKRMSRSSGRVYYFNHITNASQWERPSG

WFYpSPRLKK [Pintide]
phosphoprotein-binding activity of Pin1 or its WW domain: significantly reduced
